{"source": "patent US8940739B2", "about": "“Compound of a reverse-turn mimetic and a production method and use therefor” (JW Pharmaceutical Corporation, priority 2010, dated 2015)"}
{"system": "MV-4-11 (human, Acute Myeloid Leukemia cell line) cells", "test": "Cell growth inhibition assay, GI50 of MV-4-11", "format": "cell-based", "conditions": "Homo sapiens, MV4-11, 72 h, MV-4-11 cells", "experimental": "The anti-proliferative activity (cell growth inhibition assay) of the compounds according to the present invention against AML (Acute Myeloid Leukemia) cancer cells was measured. […] The lower the GI50 value, the higher the anti-proliferative activity.\nA cell growth Inhibition assay was performed to investigate the rate of inhibition of cell proliferation by the compounds of the present invention. MV-4-11 (human, Acute Myeloid Leukemia cell line) cells were cultured in Iscove's modified Dulbecco's medium (IMDM) including 10% fetal bovine serum (FBS), 1× penicillin/streptomycin (10,000 units/ml Penicillin, […] Streptomycin in 0.85% NaCl). MV-4-11 cells were harvested with the IMDM and 5×10^4 cells/well were transferred to each well of 96-well culture plates (Nunc, #167008).\nThe compounds of Examples 1 to 5 were exposed to serial dilution and duplicated for each concentration. For the serial dilution, the compounds of the present invention were repeatedly diluted with the same volume of media onto 96-well assay block (costar, #3956). After the dilution, each compound was added to each well.\nAlso, the background absorbance was measured during the treatment with the test compounds by replacing the test compound with IMDM in the negative control plate. The plates were incubated for three days (72 hours) at 37 in the humidified incubator containing 5% CO2. On the last day, 20 µl of a CellTiter 96 Aqueous One Solution (Promega #G3581) was added to the culture in each well and the plates were incubated for a few hours at 37 in the humidified incubator containing 5% CO2. After the incubation, the absorbance of each cell was measured at 490 nm using an EnVision (Perkinelmer, USA).\nThe GI50 values were calculated using a Prism 3.0 program.", "units": {"GI50": "nM"}}
{"smiles": "C=CCN1CC(=O)N2[C@@H](Cc3ccc(O)cc3)C(=O)N(Cc3cccc4c(C(=O)N5CCN(C6CC6)CC5)cn(C)c34)C[C@@H]2N1C(=O)NCc1ccccc1", "note": "[Compound E-17]", "GI50": 4.5}
{"smiles": "C=CCN1CC(=O)N2C(CN(Cc3cccc4c(C(=O)Nc5ccc(N)nc5)cn(C)c34)C(=O)[C@@H]2Cc2ccc(O)cc2)N1C(=O)NCc1ccccc1", "note": "(stereo partly shown) [Compound G-9]", "GI50": 19.9}
{"smiles": "C=CCN1CC(=O)N2[C@@H](Cc3ccc(O)cc3)C(=O)N(Cc3cccc4c(-c5ccc(NC(=O)c6ccc(-n7ccnc7)nc6)cc5)cn(C)c34)C[C@@H]2N1C(=O)NCc1ccccc1", "note": "[Compound D-68]", "GI50": 1.4}
{"smiles": "C=CCN1CC(=O)N2[C@@H](Cc3ccc(O)cc3)C(=O)N(Cc3cccc4c(-c5ccc(C(=O)NC)o5)cn(C)c34)C[C@@H]2N1C(=O)NCc1ccccc1", "note": "[Compound D-101]", "GI50": 5.8}
{"smiles": "C=CCN1CC(=O)N2[C@@H](Cc3ccc(O)cc3)C(=O)N(Cc3cccc4c(C(=O)N(C)CC(C)(C)CO)cn(C)c34)C[C@@H]2N1C(=O)NCc1ccccc1", "note": "[Compound F-8]", "GI50": 2}
{"smiles": "C=CCN1CC(=O)N2[C@@H](Cc3ccc(O)cc3)C(=O)N(Cc3cccc4c(C(=O)N5CCN(C(=O)OC(C)(C)C)CC5)cn(C)c34)C[C@@H]2N1C(=O)NCc1ccccc1", "note": "[Compound E-1]", "GI50": 5.8}
{"smiles": "C=CCN1CC(=O)N2[C@@H](Cc3ccc(O)cc3)C(=O)N(Cc3cccc4c(C(=O)N5CCN(Cc6ccc(C#N)cc6)CC5)cn(C)c34)C[C@@H]2N1C(=O)NCc1ccccc1", "note": "[Compound E-33]", "GI50": 9}
{"smiles": "C=CCN1CC(=O)N2[C@@H](Cc3ccc(O)cc3)C(=O)N(Cc3cccc4c(-c5ccc(NC(=O)CCCN)cc5)cn(C)c34)C[C@@H]2N1C(=O)NCc1ccccc1", "note": "[Compound D-70]", "GI50": 4.4}
{"smiles": "C=CCN1CC(=O)N2C(CN(Cc3cccc4c(-c5ccc(NC(=O)C6CCN(C)CC6)cc5)cn(C)c34)C(=O)[C@@H]2Cc2ccc(O)cc2)N1C(=O)NCc1ccccc1", "note": "(stereo partly drawn) [Compound D-60]", "GI50": 1.1}
{"smiles": "C=CCN1CC(=O)N2[C@@H](Cc3ccc(O)cc3)C(=O)N(Cc3cccc4c(C(=O)N5CCC(NC(=O)OC(C)(C)C)CC5)cn(C)c34)C[C@@H]2N1C(=O)NCc1ccccc1", "note": "[Compound E-56]", "GI50": 3.1}
{"smiles": "C=CCN1CC(=O)N2[C@@H](Cc3ccc(O)cc3)C(=O)N(Cc3cccc4c(C(=O)N5CCN(Cc6ccccc6)CC5)cn(C)c34)C[C@@H]2N1C(=O)NCc1ccccc1", "note": "[Compound E-26]", "GI50": 2.3}
{"smiles": "C=CCN1CC(=O)N2[C@@H](Cc3ccc(O)cc3)C(=O)N(Cc3cccc4c(-c5ccc(C(=O)NN6C(C)CNCC6C)cc5)cn(C)c34)C[C@@H]2N1C(=O)NCc1ccccc1", "note": "(stereo partly drawn) [Compound D-32]", "GI50": 1.3}
{"smiles": "C=CCN1CC(=O)N2[C@@H](Cc3ccc(O)cc3)C(=O)N(Cc3cccc4c(-c5ccc(NC(=O)c6ccc(CN(C)C)cc6)cc5)cn(C)c34)C[C@@H]2N1C(=O)NCc1ccccc1", "note": "[Compound D-54]", "GI50": 1.2}
{"smiles": "C=CCN1CC(=O)N2[C@@H](Cc3ccc(O)cc3)C(=O)N(Cc3cccc4c(-c5ccc(C(=O)NCCN(C)C)cc5)cn(C)c34)C[C@@H]2N1C(=O)NCc1ccccc1", "note": "[Compound D-39]", "GI50": 1.2}
{"smiles": "C=CCN1CC(=O)N2[C@@H](Cc3ccc(O)cc3)C(=O)N(Cc3cccc4c(-c5cccc(C(=O)NC6CC6)c5)cn(C)c34)C[C@@H]2N1C(=O)NCc1ccccc1", "note": "[Compound D-29]", "GI50": 1.3}
{"smiles": "C=CCN1CC(=O)N2[C@@H](Cc3ccc(O)cc3)C(=O)N(Cc3cccc4c(C(=O)N5CCN(Cc6ccc(OC)cc6)CC5)cn(C)c34)C[C@@H]2N1C(=O)NCc1ccccc1", "note": "[Compound E-36]", "GI50": 8.4}
{"smiles": "C=CCN1CC(=O)N2[C@@H](Cc3ccc(O)cc3)C(=O)N(Cc3cccc4c(C(=O)N5CCN6CCN(CC7CCCCC7)CC6C5)cn(C)c34)C[C@@H]2N1C(=O)NCc1ccccc1", "note": "(stereo partly shown) [Compound E-46]", "GI50": 2}
{"smiles": "C=CCN1CC(=O)N2[C@@H](Cc3ccc(O)cc3)C(=O)N(Cc3cccc4c(C(=O)N5CCN(Cc6cccc(OC)c6)CC5)cn(C)c34)C[C@@H]2N1C(=O)NCc1ccccc1", "note": "[Compound E-35]", "GI50": 5.1}
{"smiles": "C=CCN1CC(=O)N2[C@@H](Cc3ccc(O)cc3)C(=O)N(Cc3cccc4c(-c5ccc(C(=O)NN6CCOCC6)cc5)cn(C)c34)C[C@@H]2N1C(=O)NCc1ccccc1", "note": "[Compound D-43]", "GI50": 1.2}
{"smiles": "C=CCN1CC(=O)N2[C@@H](Cc3ccc(O)cc3)C(=O)N(Cc3cccc4c(-c5ccc(C(=O)NN(C)C)cc5)cn(C)c34)C[C@@H]2N1C(=O)NCc1ccccc1", "note": "[Compound D-36]", "GI50": 1.2}
{"smiles": "C=CCN1CC(=O)N2[C@@H](Cc3ccc(O)cc3)C(=O)N(Cc3cccc4c(-c5ccc(NC(=O)NC6CCCCC6)nc5)cn(C)c34)C[C@@H]2N1C(=O)NCc1ccccc1", "note": "[Compound D-92]", "GI50": 19}
{"smiles": "C=CCN1CC(=O)N2[C@@H](Cc3ccc(O)cc3)C(=O)N(Cc3cccc4c(-c5ccc(C(=O)N(C)CCN(C)C)cc5)cn(C)c34)C[C@@H]2N1C(=O)NCc1ccccc1", "note": "[Compound D-40]", "GI50": 1.2}
{"smiles": "C=CCN1CC(=O)N2[C@@H](Cc3ccc(O)cc3)C(=O)N(Cc3cccc4c(-c5ccc(NC(=O)N6CCC(N7CCOCC7)CC6)cc5)cn(C)c34)C[C@@H]2N1C(=O)NCc1ccccc1", "note": "[Compound D-64]", "GI50": 1.2}
{"smiles": "C=CCN1CC(=O)N2[C@@H](Cc3ccc(O)cc3)C(=O)N(Cc3cccc4c(-c5ccc(C(=O)NNCc6ccccc6)cc5)cn(C)c34)C[C@@H]2N1C(=O)NCc1ccccc1", "note": "[Compound D-38]", "GI50": 3.2}
{"smiles": "C=CCN1CC(=O)N2[C@@H](Cc3ccc(O)cc3)C(=O)N(Cc3cccc4c(-c5cccc(C(=O)NC6CCCCC6)c5)cn(C)c34)C[C@@H]2N1C(=O)NCc1ccccc1", "note": "[Compound D-9]", "GI50": 3.3}
{"smiles": "C=CCN1CC(=O)N2[C@@H](Cc3ccc(O)cc3)C(=O)N(Cc3cccc4c(-c5ccc(C(=O)NC6CCN(C)CC6)o5)cn(C)c34)C[C@@H]2N1C(=O)NCc1ccccc1", "note": "[Compound D-103]", "GI50": 10.8}
{"smiles": "C=CCN1CC(=O)N2[C@@H](Cc3ccc(O)cc3)C(=O)N(Cc3cccc4c(C(=O)N(C)CCNC5CC5)cn(C)c34)C[C@@H]2N1C(=O)NCc1ccccc1", "note": "[Compound F-11]", "GI50": 10.4}
{"smiles": "C=CCN1CC(=O)N2[C@@H](Cc3ccc(O)cc3)C(=O)N(Cc3cccc4c(-c5cccc(C(=O)N6CCN(C)CC6)c5)cn(C)c34)C[C@@H]2N1C(=O)NCc1ccccc1", "note": "[Compound D-2]", "GI50": 1.3}
{"smiles": "C=CCN1CC(=O)N2[C@@H](Cc3ccc(O)cc3)C(=O)N(Cc3cccc4c(-c5cccc(C(=O)N6CCC(O)CC6)c5)cn(C)c34)C[C@@H]2N1C(=O)NCc1ccccc1", "note": "[Compound D-6]", "GI50": 1.7}
{"smiles": "C=CCN1CC(=O)N2C(CN(Cc3cccc4c(C(=O)Nc5ccc(N(C)C)cc5)cn(C)c34)C(=O)[C@@H]2Cc2ccc(O)cc2)N1C(=O)NCc1ccccc1", "note": "(stereo partly shown) [Compound G-14]", "GI50": 1.2}
{"smiles": "C=CCN1CC(=O)N2[C@@H](Cc3ccc(O)cc3)C(=O)N(Cc3cccc4c(-c5ccc(C(=O)N(C)OC)cc5)cn(C)c34)C[C@@H]2N1C(=O)NCc1ccccc1", "note": "[Compound D-47]", "GI50": 1.3}
{"smiles": "C=CCN1CC(=O)N2[C@@H](Cc3ccc(O)cc3)C(=O)N(Cc3cccc4c(-c5ccc(NC(=O)C6CCN(C)CC6)cc5)cn(C)c34)C[C@@H]2N1C(=O)NCc1ccccc1", "note": "[Compound D-62]", "GI50": 1.3}
{"smiles": "C=CCN1CC(=O)N2[C@@H](Cc3ccc(O)cc3)C(=O)N(Cc3cccc4c(C(=O)N5CCN(C(C)(C)C)CC5)cn(C)c34)C[C@@H]2N1C(=O)NCc1ccccc1", "note": "[Compound E-8]", "GI50": 8.9}
{"smiles": "C=CCN1CC(=O)N2[C@@H](Cc3ccc(O)cc3)C(=O)N(Cc3cccc4c(C(=O)N5CCN6CCN(CC7CCC7)CC6C5)cn(C)c34)C[C@@H]2N1C(=O)NCc1ccccc1", "note": "(stereo partly shown) [Compound E-49]", "GI50": 6.9}
